Earlier results, collected in patent publication US9387169B2, “Rapamycin powders for pulmonary delivery” (Civitas Therapeutics, Inc., priority 2014, dated 2016).

Conditions: amorphous form

- chemical stability: extremely chemically unstable
SMILES: CO[C@H]1C[C@@H]2CC[C@@H](C)[C@@](O)(O2)C(=O)C(=O)N2CCCC[C@H]2C(=O)O[C@H]([C@H](C)C[C@@H]2CC[C@@H](O)[C@H](OC)C2)CC(=O)[C@H](C)/C=C(\C)[C@@H](O)[C@@H](OC)C(=O)[C@H](C)C[C@H](C)/C=C/C=C/C=C/1C [amorphous rapamycin, rapamycin]
